{"source": "paper PMC2630848", "about": "“Acetylcholinesterase-Inhibiting Activity of Pyrrole Derivatives from a Novel Marine Gliding Bacterium, Rapidithrix thailandica” (Marine Drugs, 2008)", "molecular_target": "acetylcholinesterase (AChE) (Tetronarce californica, UniProt P04058)", "sequence (P04058 22-564)": "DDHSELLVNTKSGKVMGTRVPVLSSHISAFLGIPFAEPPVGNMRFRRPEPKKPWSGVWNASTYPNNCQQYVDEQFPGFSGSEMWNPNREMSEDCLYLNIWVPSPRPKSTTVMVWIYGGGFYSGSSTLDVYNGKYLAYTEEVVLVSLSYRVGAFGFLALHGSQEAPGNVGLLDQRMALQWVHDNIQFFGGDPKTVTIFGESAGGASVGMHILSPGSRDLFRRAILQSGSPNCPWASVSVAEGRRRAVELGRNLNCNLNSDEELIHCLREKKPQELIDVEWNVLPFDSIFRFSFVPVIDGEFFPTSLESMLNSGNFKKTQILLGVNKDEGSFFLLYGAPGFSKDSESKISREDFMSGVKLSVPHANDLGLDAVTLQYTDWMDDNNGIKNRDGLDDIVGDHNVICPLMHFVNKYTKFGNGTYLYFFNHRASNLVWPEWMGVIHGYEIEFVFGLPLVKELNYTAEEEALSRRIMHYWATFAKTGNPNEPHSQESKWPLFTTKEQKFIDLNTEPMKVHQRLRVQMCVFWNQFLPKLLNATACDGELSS", "test": "Ellman colorimetric AChE assay with acetylthiocholine iodide and DTNB, […] nm, triplicate", "format": "biochemical"}
{"smiles": "Cc1nc2ccccc2c2cc[nH]c12", "note": "[compound 1, 4-Methyl-3H-pyrrolo[2,3-c]quinoline]", "values": [{"measurement": "IC50", "value": "4.9 ± 0.9", "unit": "µM"}]}
